{"source": "patent US20120282242A1", "about": "(priority 2002, published 2012)", "key": {"eye muscles": {"system": "eye muscles", "conditions": "in vivo"}, "glaucoma patients [1]": {"system": "glaucoma patients", "conditions": "human, in vivo"}, "[2]": {"system": "brain synaptosome preparations", "conditions": "cited from earlier work"}, "glaucoma patients [3]": {"system": "glaucoma patients", "conditions": "human, in vivo", "remark": "listed apart in the source"}, "glaucoma patients [4]": {"system": "glaucoma patients", "parameters": "species or system human", "conditions": "in vivo"}, "[5]": {"system": "eyelid muscles (Riolan's muscle, orbicularis muscle)", "parameters": "species or system human", "conditions": "in vivo"}, "[6]": {"system": "primary cultures of spinal cord neurons", "conditions": "cited from earlier work"}}, "note": "Several values for one entry are separate records, joined by “and”; a condition that tells them apart may be missing. Equal entries are not always repeated. Entries after “also recorded” stand apart in the source; their conditions may differ.", "data": [{"molecule": "NCC1(CC(=O)O)CCCCC1", "note": "[Gabapentin]", "values": [{"measurement": "therapeutic effect", "setting": "eye muscles", "result": "achieved therapeutic effect"}]}, {"molecule": "COc1cccc2c1C(=O)c1c(O)c3c(c(O)c1C2=O)C[C@@](O)(C(=O)CO)C[C@@H]3O[C@H]1C[C@H](N)[C@H](O)[C@H](C)O1", "note": "[doxorubicin]", "values": [{"measurement": "effect on eye muscles", "setting": "eye muscles", "result": "reduce the strength of eye muscles"}, {"measurement": "reducing and modulating muscle volume and muscle contraction", "setting": "eye muscles", "result": "have proven to be effective"}]}, {"molecule": "CCN(CC)CC(=O)Nc1c(C)cccc1C", "note": "[lidocaine, Diethylaminoacet-2,6-xylidide]", "values": [{"measurement": "modulation of muscle action", "setting": "eye muscles; iv", "result": "promotes the desired effect, but the effect is short lived"}]}, {"molecule": "COc1ccc(CCN(C)CCCC(C#N)(c2ccc(OC)c(OC)c2)C(C)C)cc1OC", "note": "(stereo not drawn) [verapamil]", "values": [{"measurement": "therapeutic effect", "setting": "eye muscles", "result": "causes desired therapeutic effect"}]}, {"molecule": "botulinum toxin", "values": [{"measurement": "12 week period average reduction of baseline eye pressure", "setting": "glaucoma patients [1]", "result": 16, "unit": "%"}, {"measurement": "% IOP reduction", "setting": "glaucoma patients [1]", "result": "16.6% and 11.5%"}, {"measurement": "% reduction IOP", "setting": "glaucoma patients [1]", "result": "12.5% and 10% and 7%"}, {"measurement": "IOP post Rx during first 3 Rx", "setting": "glaucoma patients [1]", "result": "26 and 24 and 23"}, {"measurement": "IOP reduction", "setting": "glaucoma patients [1]", "result": "10.5% and 14%"}, {"measurement": "reduction of IOP in the treated eye", "setting": "glaucoma patients [1]", "result": "no reduction of IOP"}, {"measurement": "release of acetylcholine and glutamate", "setting": "[2]", "result": "inhibits the release of both neurotransmitters"}, {"measurement": "Outcome: VF progression", "setting": "glaucoma patients [3]", "result": "no VF progression; also recorded: minimal VF progression"}, {"measurement": "Outcome: progression of diabetic retinopathy", "setting": "glaucoma patients [3]", "result": "No progression of diabetic retinopathy"}, {"measurement": "disturbance of lid function / subjective complaints", "setting": "glaucoma patients [4]", "result": "did not lead to any apparent disturbance of lid function"}, {"measurement": "baseline eye pressure after injection", "setting": "[5]", "result": "A reduction of baseline eye pressure was also noted"}, {"measurement": "decrease in eye pressure per spike per blink", "setting": "[5]", "result": "more than 5 mm Hg"}, {"measurement": "lower increase in eye pressure during forceful squeezing of the eyelids compared with control", "setting": "[5]", "result": "~50", "unit": "%"}, {"measurement": "reduction in eye pressure after forceful closure of the eyes", "setting": "[5]", "result": "~35", "unit": "%"}, {"measurement": "spike in pressure during blinking measured by LMD", "setting": "[5]", "result": "25 mm Hg and 20 mm Hg"}, {"measurement": "evoked release of glutamate", "setting": "[6]", "result": "inhibits the evoked release of glutamate"}]}]}
